According to patent US20240226110A1, “5-HT2C AGONIST FOR USE IN TREATING CONDITIONS ASSOCIATED WITH CENTRAL HYPOVENTILATION” (APNIMED, INC. (DELAWARE), priority 2021, published 2024):

Legend:
OSA patients = test: Crossover pilot trial, lorcaserin 15 mg or placebo before bedtime for one night; polysomnography with pneumotach and oronasal mask; type: in vivo, human; conditions: single patient, hypopneas present in both conditions
Description: In a crossover pilot trial including 6 OSA patients, the patients were administered in random order lorcaserin 15 mg or placebo before bedtime for one night.
Patients were outfitted with the usual polysomnography equipment plus a pneumotach and oronasal mask for accurate ventilation measurements. The effect of lorcaserin on several ventilatory parameters reflecting the upper airway collapsibility and muscle activity were measured using validated algorithms.

[1] = target: T1, serotonin (5-HT) 2C receptor (Rattus norvegicus, UniProt P08909); conditions: anesthetized rats; cited from earlier work
T1 construct: increased genioglossus activity and reduced upper airway collapsibility in anesthetized rats; from tissue; host or cells: anesthetized rats (in vivo; hypoglossal motor nucleus / brainstem)
T1 sequence (P08909 33-460): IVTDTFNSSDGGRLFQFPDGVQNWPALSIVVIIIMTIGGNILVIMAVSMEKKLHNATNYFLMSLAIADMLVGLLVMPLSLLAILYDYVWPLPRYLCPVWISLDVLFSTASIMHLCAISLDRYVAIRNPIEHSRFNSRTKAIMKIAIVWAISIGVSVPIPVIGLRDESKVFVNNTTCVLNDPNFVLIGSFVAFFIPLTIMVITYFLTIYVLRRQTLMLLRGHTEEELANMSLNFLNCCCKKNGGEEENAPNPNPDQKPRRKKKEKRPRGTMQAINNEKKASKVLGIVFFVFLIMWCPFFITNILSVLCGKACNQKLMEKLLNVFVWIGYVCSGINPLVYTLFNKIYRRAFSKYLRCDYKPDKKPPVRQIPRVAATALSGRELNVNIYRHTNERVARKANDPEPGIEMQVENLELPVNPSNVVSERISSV

In the case of `C[C@H]1CNCCc2ccc(Cl)cc21` [lorcaserin, (1R)-8-chloro-1-methyl-2,3,4,5-tetrahydro-1H-3-benzazepine], the “ventilation during NREM sleep of a patient, lorcaserin night vs placebo (FIG. 2)” value (OSA patients) is reported as “increased substantially”.

In the case of `COc1cc(CC(C)N)c(OC)cc1I` (stereo not drawn) [DOI, 2,5-dimethoxy-4-iodoaminophentamine], the genioglossus activity [1] is listed as “increased” and the upper airway collapsibility [1] is listed as “reduced”.
